Test results as given in US20240197728A1, “METHODS AND PHARMACEUTICAL COMPOSITIONS FOR TREATING REFRACTORY EPILEPSY” (INSERM (INSTITUT NATIONAL DE LA SANTÉ ET DE LA RECHERCHE …, priority 2021, published 2024).

Test system: KCC2
Experiment: Surface biotinylation and immunoblot of KCC2 in hippocampal cultures
Assay type: cell-based, rat
Conditions: for effect on total KCC2 expression: hippocampal cultures
Description: Primary cultures of hippocampal neurons were prepared as previously described. Briefly, hippocampi were dissected from embryonic day 18-19 Sprague-Dawley rats of either sex. Tissue was then trypsinized (0.25% v/v), and mechanically dissociated in 1×HBSS (Invitrogen) containing 10 mM HEPES. Neurons were plated at a density of 120×10^3 cells/ml onto 18-mm diameter glass coverslips (Assistent) pre-coated with 50 μg/ml poly-D,L-ornithine (Sigma-Aldrich) in plating medium composed of Minimum Essential Medium (MEM, Sigma-Aldrich) supplemented with horse serum (10% v/v, Invitrogen), L-glutamine (2 mM) and Na+ pyruvate (1 mM) (Invitrogen). After attachment for 3-4 h, cells were incubated in culture medium composed of Neurobasal medium supplemented with B27 (1×), L-glutamine (2 mM), and antibiotics (penicillin 200 units/ml, streptomycin, 200 μg/ml; Invitrogen) for up to 4 weeks at 37° C. in a 5% CO2 humidified incubator. Each week, one fifth of the culture medium volume was renewed.
For all experiments on hippocampal cultures, neurons were pre-incubated for 2 hours with either DMSO, PCPZ or CLP257 in a CO2 incubator set at 37° C. Drugs were added directly to the culture medium. For electrophysiology experiments, neurons were also recorded in presence of these drugs in the bath. For biochemistry experiments on rat hippocampo-cortical slices, slices were incubated with either DMSO (vehicle), CLP257, PCPZ, WNK463 or sodium orthovanadate for 2 hours in interface chambers set at 37° C. For human tissue experiments, slices were pre-incubated with either DMSO, CLP257 or PCPZ for 2 hours in interface chambers set at 37° C. and then also recorded in presence of these compounds.
Neurons were washed with ice-cold PBS three times, and then incubated with PBS supplemented with 0.5-1 mg/ml EZ-Link Sulfo-NHS-SS-Biotin (Pierce, Rockford, IL, USA) at 4° C. for 30 min under gentle agitation. Biotinylation was stopped by addition of Tris-HCl (50 mM; pH 7.4) and cells lysed in a modified RIPA buffer containing (in mM): Tris-HCl 50 (pH 7.4), NaCl 150, 1% Nonidet P-40, 0.5% DOC, 0.1% SDS, NaF 50, Na3VO4 1 and protease and phosphatase inhibitors (Roche). Lysates were then collected by gently scraping the bottom of each well. After complete homogenization, samples were centrifuged and the supernatant was collected. A small fraction of the lysates was kept for input KCC2 and total protein quantification using BCA kit (Thermo Scientific). Lysates were mixed with a 50% slurry of Neutravidin beads (Thermo Scientific) and rotated overnight at 4° C. […]
Samples were subjected to electrophoresis on polyacrylamide gradient gels (4-12%) and transferred to nitrocellulose membranes. […] Fluorescence was detected using Odyssey infrared imaging system (LI-COR Bioscience). […]

| Compound | effect on total KCC2 expression (10 μM PCPZ, 2 h, p=0.137) | effect on ratio of surface to total KCC2 expression (10 μM PCPZ, 2 h, p=0.735) | effect on total KCC2 expression (100 μM CLP257, 2 h, p=0.893) | effect on ratio of surface to total KCC2 expression (100 μM CLP257, 2 h, p=0.8) |
| --- | --- | --- | --- | --- |
| CN1CCN(CCCN2c3ccccc3Sc3ccc(Cl)cc32)CC1 [PCPZ, prochlorperazine] | no effect | no effect | – | – |
| O=C1N=C(N2CCCCN2)S/C1=C\c1ccc(F)cc1O [CLP257, (5Z)-5-[(4-Fluoro-2-hydroxyphenyl)methylene]-2-(tetrahydro-1-(2H)-pyridazinyl)-4(5H)-thiazolone] | – | – | no effect | no effect |
